The results in this text go back to US20040110777A1, “Quinazolinones and pyridinylpyrimidinones for controlling invertebrate pests” (priority 2003, published 2004).

The structures appear in SMILES notation.

The melting point is the temperature, or range, at which the solid turns liquid. Compound `Cc1nc(C(F)(F)F)ccc1-c1nc2c(C)cccc2c(=O)n1C(C)C` [Compound 5, 8-methyl-3-(1-methylethyl)-2-[2-methyl-6-(trifluoromethyl)-3-pyridinyl]-4(3H)-quinazolinone] gave a melting point of 132 to 135 °C.
